From publication PMC8318231, “Rate-of-Kill (RoK) assays to triage large compound sets for Chagas disease drug discovery: Application to GSK Chagas Box” (PLoS Neglected Tropical Diseases, 2021)

Experiments:
[1] = test system: T. cruzi Tulahuen trypomastigotes; assay: T. cruzi trypomastigote assay (Cell Titer-Glo viability, ATP luminescence); assay type: cell-based, Trypanosoma cruzi; conditions: for Trypomastigotes pIC50 48 hours: 48 hours incubation; for Trypomastigotes pIC50 48 hours / Trypomastigotes pIC50 72 hours: pIC50 = -log10 IC50 in molar units; for Trypomastigotes pIC50 72 hours: 72 hours incubation; for 72 pIC50 (trypomastigotes, raw data of Fig 1D): 72 hours, plotted values, censored values given without sign; for 48 pIC50 / 72 pIC50: trypomastigote assay; for 48 pIC50: 48 h; for 72 pIC50: 72 h
Method in brief: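 Tulahuen trypomastigotes from infected LLC-MK2 culture supernatants (days 5–8) plated at 5 × 10^4 per well in DMEM/2% FBS with compound at 5 μM single-shot final or in dose response. Viability by CellTiter-Glo ATP luminescence after 10 min at room temperature, normalised to no-cell (100%) and DMSO (0%) controls.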

[2] = test system: T. cruzi intracellular amastigotes in H9c2 cells; assay: Rate-of-Kill (RoK) high-content imaging assay, amastigotes per cell (AM/CELL) and curve descriptors; assay type: cell-based, Trypanosoma cruzi; design: key to ME_24h / ME_48h / ME_72h: % reduction in parasite burden (cidal response); t50pct_MCC50 / t50pct_Cmax: unit not given here; conditions: for ME_24h: 24h; for ME_48h: 48h; for ME_72h: 72h; for AM/CELL NORM: sheet figure 4 A; for t50%_Cmax / tlag_Cmax / t50pct_Cmax: at Cmax; for ME_24h (%): maximum effect at 24 h; for ME_24h (%) / ME_48h (%) / ME_72h (%): RoK assay; for ME_48h (%): maximum effect at 48 h; for ME_72h (%): maximum effect at 72 h; for ME 24h (maximum effect at 24 hours, intracellular amastigotes): maximum percentage of parasite burden reduction reached by any concentration
Method in brief: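 H9c2 cardiomyocytes infected with T. cruzi trypomastigotes (MOI 8, 18 h), then compounds tested at 5 μM single shot or 11-point 1/3 dilution from 50 μM. DRAQ5-stained nuclei imaged over a time course. Amastigotes per cell normalised to infected cells at 4 h (0%) and non-infected cells (100%).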

Row | SMILES | Trypomastigotes pIC50 48 hours [1] | Trypomastigotes pIC50 72 hours [1] | ME_24h ([2]; figure 5) | ME_48h ([2]; figure 5) | ME_72h ([2]; figure 5) | MCCE ([2]; RoK curve descriptor) [µM] | AM/CELL NORM ([2]; Time 4) | AM/CELL NORM ([2]; Time 24) | AM/CELL NORM ([2]; Time 48) | AM/CELL NORM ([2]; Time 72) | tlag_Cmax [2] [h] | t50pct_Cmax ([2]; figure 5) | tlag_Cmax ([2]; figure 5) | t50pct_MCC50 ([2]; at MCC50, figure 5) | tlag_MCC50 ([2]; at MCC50, figure 5) | MCCE ([2]; figure 5) | ME_24h (%) [2] [%] | ME_48h (%) [2] [%] | ME_72h (%) [2] [%] | ME 24h (maximum effect at 24 hours, intracellular amastigotes) [2] [%] | further results
1 | Cc1cc2cncn2c(C2CCCCN2C(=O)c2cccs2)n1 (centres unmarked) [TCMDC-143500] | < 4.3 | < 4.3 | -103.212 | -13.304 | 53.284 | 0.2 | 8.792 | -103.212 | -13.304 | 50.5477 | 24.0 | 72 | 24 | 72 | 24 | 0.2058 | -103.2 | -13.3 | 53.3 | -103.212 | 72 pIC50 (trypomastigotes, raw data of Fig 1D) [1]: < 4.3; 48 pIC50 ([1]; figure 1A): < 4.3; 72 pIC50 ([1]; figure 1A): < 4.3; 72 pIC50 ([1]; figure 1B): < 4.3; MCC50 ([2]; RoK curve descriptor): 16.7 µM; t50%_Cmax [2]: 72.0 h; t50%_MCC50 ([2]; at MCC50): 72.0 h; tlag_MCC50 ([2]; at MCC50): 24.0 h; MCC50 ([2]; figure 5, in µM): 16.6667
2 | CC(C)(C)C(Cn1ccnc1)NC(=O)c1ccc2nc(C3CC3)oc2c1 (centres unmarked) [TCMDC-143336] | 5 | < 4.3 | -64.3403 | -179.917 | -53.9696 | 0.2 | 3.062 | -93.0977 | -442.656 | -139.753 | 48.0 | 72 | 48 | 72 | 72 | 0.2058 | -64.3 | -179.9 | -54.0 | -64.3403 | MCC50 ([2]; figure 5): 50 µM
3 | OCCCNc1nc(Nc2ccncc2)nc2ccccc12 [TCMDC-143476] | 5.3 | 5.6 | -15.4195 | -2.754 | -23.113 | 0.6 | -9.731 | -26.5514 | -22.3232 | -41.9873 | 24.0 | 72 | 24 | 72 | 72 | 0.6173 | -15.4 | -2.8 | -23.1 | -15.4195 | MCC50 ([2]; figure 5): 50 µM
4 | CNc1c(C(N)=O)c(-c2ccc3scnc3c2)nn1CC(F)(F)F.O=C(O)C(F)(F)F [TCMDC-143463] | < 4.3 | < 4.3 | -5.4236 | -24.264 | 4.63 | 0.2 | 20.0861 | -5.743 | -19.2942 | 13.2045 | 48.0 | 72 | 48 | 72 | 72 | 0.2058 | -5.4 | -24.3 | 4.6 | -5.104 | 72 pIC50 (trypomastigotes, raw data of Fig 1D) [1]: < 4.3; 48 pIC50 ([1]; figure 1A): < 4.3; 72 pIC50 ([1]; figure 1A): < 4.3; 72 pIC50 ([1]; figure 1B): < 4.3; MCC50 ([2]; figure 5): 50 µM
5 | Cc1nc2nc(C)c(Cc3ccc(C(C)C)cc3)c(=O)n2[nH]1 [TCMDC-143087] | 5.8 | 5.9 | 30.2741 | 57.5973 | 64.9642 | 0.3 | 2.257 | 40.319 | 64.8982 | 80.3688 | 4.0 | 60 | 4 | 72 | 38 | 0.3099 | 30.3 | 57.6 | 65.0 | 41.0116 | activity in trypomastigotes assay (in words) ([1]; 48 and 72 hours): active versus trypomastigotes at 48 and 72 hours with the same potency; ME (maximum effect) in RoK assay (in words) [2]: positive value of ME from 24 hours; tlag (in words) [2]: low values of tlag; ME / cidal effect at 72 hours ([2]; 72 hours): ≤ 65%; MCC50 ([2]; RoK curve descriptor): 0.6 µM; t50%_Cmax [2]: 60.0 h; t50%_MCC50 ([2]; at MCC50): 72.0 h; tlag_MCC50 ([2]; at MCC50): 4.0 h; MCC50 ([2]; figure 5, in µM): 25.3086
6 | COc1cc(C(C)C)c(S(C)(=O)=O)cc1C(=O)N1CCN(c2ccccc2Cl)CC1 [TCMDC-143097] | < 4.3 | < 4.3 | -95.8223 | -1.8208 | 22.9753 | 1.9 | -12.0353 | -95.8223 | -56.5005 | 8.079 | 24.0 | 72 | 24 | 72 | 72 | 1.852 | -95.8 | -1.8 | 23.0 | -95.8223 | 72 pIC50 (trypomastigotes, raw data of Fig 1D) [1]: < 4.3; 48 pIC50 ([1]; figure 1A): < 4.3; 72 pIC50 ([1]; figure 1A): < 4.3; 72 pIC50 ([1]; figure 1B): < 4.3; MCC50 ([2]; figure 5): 50 µM
7 | N#Cc1cc(N2CCCC2=O)ccc1Sc1ccccc1CO [TCMDC-143604] | < 4.3 | < 4.3 | -55.9743 | 36.5881 | 78.1794 | 0.6 | 9.146 | -84.052 | 29.3818 | 78.3167 | 24.0 | 72 | 24 | 72 | 24 | 0.6173 | -56.0 | 36.6 | 78.2 | -55.4036 | 72 pIC50 (trypomastigotes, raw data of Fig 1D) [1]: < 4.3; 48 pIC50 ([1]; figure 1A): < 4.3; 72 pIC50 ([1]; figure 1A): < 4.3; 72 pIC50 ([1]; figure 1B): < 4.3; MCC50 ([2]; RoK curve descriptor): 1.9 µM; t50%_Cmax [2]: 72.0 h; t50%_MCC50 ([2]; at MCC50): 72.0 h; tlag_MCC50 ([2]; at MCC50): 24.0 h; MCC50 ([2]; figure 5, in µM): 1.852
